From paper PMC9311059, “P‐Glycoprotein and Breast Cancer Resistance Protein Transporter Inhibition by Cyclosporine and Quinidine on the Pharmacokinetics of Oral Rimegepant in Healthy Subjects” (Clinical Pharmacology in Drug Development, 2022)
“And” between values parts separate entries of the source, which are not always exact repeats. Equal entries are not always repeated. Where two headings read alike, the source gives them in different places.

Legend:
[1] = system: organic anion transporting polypeptide 1B1; parameters: method as in ref 7 = [7]; PMID 32058712; doi:10.1021/acs.jmedchem.9b01810; 7 Dubowchik GM , Conway CM , Xin AW . Blocking the CGRP pathway for acute and preventive treatment of migraine: the evolution of success . J Med Chem . 2020; 63 ( 13 ): 6600 ‐ 6623 . 32058712 10.1021; conditions: in vitro; cited from earlier work
[2] = parameters: method as in unpublished; conditions: rimegepant 75 mg with fluconazole 400 mg once daily for 8 consecutive days; ref unpublished; cited from earlier work
[3] = parameters: method as in PMID 23965396; conditions: single and 2‐week multiple daily oral doses up to 600 mg; cited from earlier work
[4] = Part 2: pharmacokinetics of rimegepant 75 mg ODT alone or coadministered with quinidine 600 mg, 2-way crossover; type: in vivo, human; conditions: for AUC / Cmax: po, 75 mg; for Tmax: read-out: tmax, median (range)
Method: This phase 1, open‐label, randomized, single‐dose, 2‐way crossover, 2‐part, drug‐drug interaction study was conducted at a single center (Syneos Health, Québec, Canada). Subjects were screened within 28 days preceding administration of study medication. In part 1, fasted subjects were randomly assigned to a single dose of rimegepant 75 mg ODT or a single dose of rimegepant 75 mg ODT coadministered with cyclosporine 200 mg (2 × 100‐mg capsules). […] Following the completion of part 1, an interim PK analysis and review of data were performed. […] In part 2, fasted subjects were randomly assigned to a single dose of rimegepant 75 mg ODT or a single dose of rimegepant 75 mg ODT coadministered with quinidine 600 mg (2 × 300‐mg tablets).
In part 1, subjects received 1 of the following treatments under fasting conditions: 1 oral dose of rimegepant 75 mg ODT (Catalent Pharma Solutions, Swindon, UK) or 1 oral dose of rimegepant 75 mg ODT coadministered with cyclosporine 200 mg (Novartis Pharmaceuticals Canada Inc., Dorval, Quebec, Canada). In part 2, subjects received 1 of the following treatments under fasting conditions: 1 oral dose of rimegepant 75 mg ODT alone or 1 oral dose of rimegepant 75 mg ODT coadministered with quinidine 600 mg (Sandoz Inc., West Princeton, New Jersey). In parts 1 and 2, the interval between treatments could not exceed 2 minutes.
For each treatment, subjects were confined from the morning of day −1 until after the 24‐hour postdose blood draw on day 2. Subjects returned for all subsequent blood draws. No food was allowed from at least 10 hours before dosing until at least 4 hours after dosing. Meals were standardized and similar in composition between periods. Except for water given with cyclosporine and quinidine, no fluids were allowed from 1 hour before dosing until 1 hour after dosing. Water was provided ad libitum at all other times. […] When appropriate, subjects were accompanied by a staff member while walking.
In each period, 20 blood samples for PK assessment were collected at the following time points: before dosing; 5, 10, 20, 30, 40, and 50 minutes after dosing; and 1, 1.5, 2, 2.5, 3, 4, 5, 6, 8, 12, 24 (day 2), 48 (day 3), and 72 (day 4) hours after dosing. […] Plasma samples were assayed for rimegepant using ultra‐performance liquid chromatography with tandem mass spectrometry detection (LC‐MS/MS). The quantifiable range was 10 to 5000 ng/mL. Plasma samples containing human ethylenediaminetetraacetic acid (EDTA) K2 plasma as an anticoagulant were processed using automated protein precipitation before LC‐MS/MS analysis. The internal standard was rimegepant‐^13C2d4. The validation was performed using an API 5000 LC/MS/MS system with Analyst software, version 1.6.3 (SCIEX, Framingham, Massachusetts). The pump flow was isocratic, with a flow rate set at 0.600 mL/min. The column was an Acquity UPLC BEH C18, 50×2.1 mm, 1.7 μm (Waters Corporation, Framingham, Massachusetts), which was maintained at a temperature of 60°C and contained Milli‐Q type water/acetonitrile with ammonium acetate and acetic acid. […] Incurred sample reanalysis was carried out on ≈10% of randomly selected samples.
The effects of cyclosporine (part 1) or quinidine (part 2) on the single‐dose PK of rimegepant were evaluated using general linear model procedures in SAS (SAS Institute, Cary, North Carolina). In these evaluations, analysis of variance (ANOVA) model was performed on untransformed tmax, terminal elimination rate constant, and t1/2el and on log‐transformed AUC0‐t, AUC0‐inf, and Cmax at the alpha level of .05. The model included treatment, sequence, and period as fixed effects, and subject nested within sequence as a random effect. Intra‐ and intersubject coefficient of variation were estimated.

[5] = Safety assessment (adverse events, ECG, vital signs, S-STS) in parts 1 and 2
Method: Safety was assessed using adverse events (AEs) that occurred from signing informed consent through 4 days after the last study drug administration, physical examination, body measurements, and the S‐STS. Safety was also assessed through vital signs (blood pressure, heart rate, respiratory rate, oral temperature), and electrocardiography. In part 2, cardiac telemetry was recorded continuously from ≈10 hours before dosing until 6 hours after dosing in each period (8 hours after dosing in subjects receiving quinidine with an increased QT interval at the 6‐hour assessment).
Safety laboratory assessments included a QuantiFERON‐TB test (Hilden, Germany); pregnancy tests (urine and serum); drug, alcohol, and cotinine screen; hematology; biochemistry; coagulation (in case of abnormal liver function tests); serology; and urinalysis.
Safety data were summarized but not subjected to inferential analysis.

[6] = parameters: method as in unpublished; conditions: rimegepant 75 mg with itraconazole 200 mg once daily for 7 consecutive days, healthy adults; ref unpublished; cited from earlier work
P‐gp = system: P‐gp; parameters: method as in ref 7 = [7]; PMID 32058712; doi:10.1021/acs.jmedchem.9b01810; 7 Dubowchik GM , Conway CM , Xin AW . Blocking the CGRP pathway for acute and preventive treatment of migraine: the evolution of success . J Med Chem . 2020; 63 ( 13 ): 6600 ‐ 6623 . 32058712 10.1021; conditions: in vitro; cited from earlier work
CYP3A4 = system: CYP3A4; parameters: method as in ref 6, 7 = [6]; 6 PubChem [Internet]. Bethesda (MD): National Library of Medicine (US), National Center for Biotechnology Information; 2004‐. PubChem Compound Summary for CID 51049968, Rimegepant. https://pubchem.ncb || [7]; PMID 32058712; doi:10.1021/acs.jmedchem.9b01810; 7 Dubowchik GM , Conway CM , Xin AW . Blocking the CGRP pathway for acute and preventive treatment of migraine: the evolution of success . J Med Chem . 2020; 63 ( 13 ): 6600 ‐ 6623 . 32058712 10.1021; conditions: in vitro, human liver microsomes and recombinant human CYP enzymes; cited from earlier work
[7] = by quinidine 600 mg, single dose rimegepant 75 mg ODT, vs rimegepant alone
[8] = coadministration with quinidine 600 mg, rimegepant 75 mg
[9] = parts 1 and 2, rimegepant alone or coadministered

N[C@@H]1c2cccnc2[C@H](OC(=O)N2CCC(n3c(=O)[nH]c4ncccc43)CC2)CC[C@H]1c1cccc(F)c1F [Rimegepant]
substrate of organic anion transporting polypeptide 1B1 [1]: not a substrate
change in rimegepant Cmax [2]: no change
increase in rimegepant AUC [2]: 80%
tolerability [3]: well tolerated
increase in rimegepant AUC0‐inf [4, 7]: 54.8% and 55%
increase in rimegepant Cmax [4, 7]: 66.9% and 67%
rimegepant AUC0‐inf geometric mean ratio (90% CI) versus rimegepant alone [4, 8]: 1.55 (1.40‐1.72)
rimegepant Cmax geometric mean ratio (90% CI) versus rimegepant alone [4, 8]: 1.67 (1.46‐1.91)
AUC ([4]; human, plasma, part 2, rimegepant 75 mg ODT alone, single oral dose, fasted, plasma, N = 12, read-out: AUC0‐inf, geometric least squares mean): 4410 ng·h/mL
AUC ([4]; human, plasma, part 2, rimegepant 75 mg ODT alone, single oral dose, fasted, plasma, N = 12, read-out: AUC0‐t, geometric least squares mean): 4400 ng·h/mL
Cmax ([4]; human, plasma, part 2, rimegepant 75 mg ODT alone, single oral dose, fasted, plasma, N = 12, read-out: Cmax, geometric least squares mean): 797 ng/mL
AUC ([4]; human, plasma, part 2, rimegepant ODT 75 mg alone, single oral dose, N 12, read-out: AUC0‐inf, arithmetic mean (percent coefficient of variation)): 4540 ng·h/mL
AUC ([4]; human, plasma, part 2, rimegepant ODT 75 mg alone, single oral dose, N 12, read-out: AUC0‐t, arithmetic mean (percent coefficient of variation)): 4520 ng·h/mL
Cmax ([4]; human, plasma, part 2, rimegepant ODT 75 mg alone, single oral dose, N 12, read-out: Cmax, arithmetic mean (percent coefficient of variation)): 829 ng/mL
Tmax ([4]; human, plasma, part 2, rimegepant ODT 75 mg alone, single oral dose, N 12): 1.5 h
half-life ([4]; human, plasma, part 2, rimegepant ODT 75 mg alone, single oral dose, N 12, read-out: t½el, arithmetic mean (percent coefficient of variation) (converted)): 8.56 h
Tmax ([4]; human, plasma, part 2, rimegepant ODT 75 mg coadministered with quinidine 600 mg, single oral dose, N 12): 2.8 h
CL/F, arithmetic mean (percent coefficient of variation) ([4]; part 2, rimegepant ODT 75 mg alone, single oral dose, N 12): 17.39 (24.68) L/h
difference in geometric mean t1/2el between treatments ([4]; part 2, rimegepant with quinidine vs rimegepant alone): ≤ 20%
subjects discontinued due to AEs ([5]; part 2, rimegepant group: sinus tachycardia, rimegepant‐quinidine group: false‐positive SARS‐CoV‐2 test): 1 subjects
nausea (TEAE), number of subjects ([5]; parts 1 and 2): 1 subjects
serious AEs [5, 9]: No serious AEs were reported
severity of TEAEs [5, 9]: mild or moderate
tolerability ([5]; single oral dose rimegepant 75 mg ODT alone or coadministered with cyclosporine or quinidine, parts 1 and 2): well tolerated and safe
increase in rimegepant AUC [6]: 400%
increase in rimegepant Cmax [6]: 40%
substrate of P‐gp transporter (P‐gp): substrate
metabolising enzyme (CYP3A4): primarily metabolized by CYP3A4
